These results are taken from US20040121028A1, “Plant based agents as bioavailability / bioefficacy enhancers for drugs and nutraceuticals” (COUNCIL OF SCIENTIFIC AND INDUSTRIAL RESEARCH, priority 2002, published 2004).

The nature of the data set: Enhancement in bioavailability of drugs by the Cuminum cyminum active molecule / fraction.
[1] abbreviates: drug given with Active molecule (3′,5-dihydroxy flavone-7-O-β-D-galacturonide-4′-O-β-D-glucopyranoside).
Where [2] appears, read: drug given with Fraction from Cuminum cyminum.

`CN/C(=N/CCSCc1nc[nH]c1C)NC#N` [Cimetidine]: the “% Enhancement in bioavailability” value is, setting by setting: under setting [1], 76%; under setting [2], 70%. `CC(=O)N1CCN(c2ccc(OCC3COC(Cn4ccnc4)(c4ccc(Cl)cc4Cl)O3)cc2)CC1` (stereo not drawn) [Ketoconazole]: the “% Enhancement in bioavailability” value under setting [1] amounted to 77% and the “% Enhancement in bioavailability” value under setting [2] turned out to be 85%. In the same order, the values of `NCC[C@H](O)C(=O)N[C@@H]1C[C@H](N)[C@@H](O[C@H]2O[C@H](CN)[C@@H](O)[C@H](O)[C@H]2O)[C@H](O)[C@H]1O[C@H]1O[C@H](CO)[C@@H](O)[C@H](N)[C@H]1O` [Amikacin] are 76% and 87%. In the same order, the values of `Cc1nnc2n1-c1ccc(Cl)cc1C(c1ccccc1)=NC2` [Alprazolam] are 70% and 75%.

Consider `COc1cccc2c1C(=O)c1c(O)c3c(c(O)c1C2=O)C[C@@](O)(C(=O)CO)C[C@@H]3O[C@H]1C[C@H](N)[C@H](O)[C@H](C)O1` [Doxorubicin], for which the “% Enhancement in bioavailability” value runs as follows: under setting [1], 78%; under setting [2], 90%.

With `C[C@@H]1[C@H](O)[C@@H](C)/C=C/C=C/C=C/C=C/C=C/C=C/C=C/[C@H](O[C@@H]2O[C@H](C)[C@@H](O)[C@H](N)[C@@H]2O)C[C@@H]2O[C@](O)(C[C@@H](O)C[C@@H](O)[C@H](O)CC[C@@H](O)C[C@@H](O)CC(=O)O[C@H]1C)C[C@H](O)[C@H]2C(=O)O` [Amphotericin B], the “% Enhancement in bioavailability” value came out at 95% under setting [1] and 90% under setting [2]. In the same order, the values of `CCc1cc(C(N)=S)ccn1` [Ethionamide] are 120% and 110%.

`CO/N=C(\C(=O)N[C@@H]1C(=O)N2C(C(=O)O)=C(CSc3nc(=O)c(O)nn3C)CS[C@H]12)c1csc(N)n1` [Cefatrioxone]: the “% Enhancement in bioavailability” value is given as 75% under setting [1] and 100% under setting [2].

On to `O=c1[nH]cc(F)c(=O)[nH]1` [5-Fluorouracil], for which the “% Enhancement in bioavailability” value under setting [1] turned out to be 110% and the “% Enhancement in bioavailability” value under setting [2] came to 240%. Regarding `CS(=O)(=O)Nc1ccc([N+](=O)[O-])cc1Oc1ccccc1` [Nimesulide], the “% Enhancement in bioavailability” value runs as follows: under setting [1], 90%; under setting [2], 115%. In the same order, the values of `CNC(=C[N+](=O)[O-])NCCSCc1ccc(CN(C)C)o1` [Ranitidine] are 95% and 95%. In the case of `Nc1nc2c(ncn2COCCO)c(=O)[nH]1` [Acyclovir], the “% Enhancement in bioavailability” value by setting is: under setting [1], 89%; under setting [2], 110%. For `CC(C)(C)NCC(O)c1ccc(O)c(CO)c1` (stereo not drawn) [Salbutamol], the “% Enhancement in bioavailability” value is, setting by setting: under setting [1], 98%; under setting [2], 75%. For `CC(C)NCC(O)COc1cccc2ccccc12` (stereo not drawn) [Propranolol], the “% Enhancement in bioavailability” value runs as follows: under setting [1], 85%; under setting [2], 140%. In the same order, the values of `C=CC[C@@H]1/C=C(\C)C[C@H](C)C[C@H](OC)[C@H]2O[C@@](O)(C(=O)C(=O)N3CCCC[C@H]3C(=O)O[C@H](/C(C)=C/[C@@H]3CC[C@@H](O)[C@H](OC)C3)[C@H](C)[C@@H](O)CC1=O)[C@H](C)C[C@@H]2OC` [Tacrolimus] are 90% and 110%. Take `O=C(CCCN1CCC(O)(c2ccc(Cl)cc2)CC1)c1ccc(F)cc1` [Haloperidol]: the “% Enhancement in bioavailability” value reads like this: under setting [1], 72%; under setting [2], 60%. In the same order, the values of `CCOC(=O)C1=C(COCCN)NC(C)=C(C(=O)OC)C1c1ccccc1Cl` (stereo not drawn) [Amlodipine] are 80% and 130%. Take `Nc1ccc(S(=O)(=O)c2ccc(N)cc2)cc1` [Dapsone]: the “% Enhancement in bioavailability” value is, setting by setting: under setting [1], 67%; under setting [2], 93%. `NNC(=O)c1ccncc1` [Isoniazid]: the “% Enhancement in bioavailability” value under setting [2] came to 30%. On to `CC1=C(C(=O)O)N2C(=O)[C@@H](NC(=O)[C@H](N)c3ccc(O)cc3)[C@H]2SC1` [Cefadroxil], for which the “% Enhancement in bioavailability” value reads like this: under setting [1], 85%; under setting [2], 120%. Consider `COc1ccc2[nH]c([S+]([O-])Cc3ncc(C)c(OC)c3C)nc2c1` (stereo not drawn) [Omeprazole], for which the “% Enhancement in bioavailability” value under setting [1] was determined as 72% and the “% Enhancement in bioavailability” value under setting [2] was determined as 87%. Regarding `Cn1c(=O)c2[nH]cnc2n(C)c1=O` [Theophylline], the “% Enhancement in bioavailability” value turned out to be 75% under setting [1] and 95% under setting [2].

In the case of `CCn1cc(C(=O)O)c(=O)c2cc(F)c(N3CCNCC3)cc21` [Norfloxacin], the “% Enhancement in bioavailability” value is, setting by setting: under setting [1], 45%; under setting [2], 55%. Consider `CN(Cc1cc(Br)cc(Br)c1N)C1CCCCC1` [Bromhexine], for which, under setting [2], the “% Enhancement in bioavailability” value came to 35%. For the molecule `O=C(O)Cc1ccccc1Nc1c(Cl)cccc1Cl` [Diclofenac], the “% Enhancement in bioavailability” value is reported as 105% under setting [1] and 125% under setting [2]. Consider `CC1(C)S[C@@H]2[C@H](NC(=O)[C@H](N)c3ccc(O)cc3)C(=O)N2[C@H]1C(=O)O` [Amoxycillin], for which the “% Enhancement in bioavailability” value under setting [1] was found to be 68% and the “% Enhancement in bioavailability” value under setting [2] turned out to be 105%. On the same counts, the results for `CC[C@H]1OC(=O)[C@H](C)[C@@H](O[C@H]2C[C@@](C)(OC)[C@@H](O)[C@H](C)O2)[C@H](C)[C@@H](O[C@@H]2O[C@H](C)C[C@H](N(C)C)[C@H]2O)[C@](C)(O)C[C@@H](C)C(=O)[C@H](C)[C@@H](O)[C@]1(C)O` [Erythromycin] are 70% and 80%.

Turning to `CS(=O)(=O)c1ccc(C2=C(c3ccccc3)C(=O)OC2)cc1` [Rofecoxib], the “% Enhancement in bioavailability” value is, setting by setting: under setting [1], 43%; under setting [2], 70%. On to `CN1C(C(=O)Nc2ccccn2)=C(O)c2ccccc2S1(=O)=O` [Piroxicam], for which the “% Enhancement in bioavailability” value is given as 76% under setting [1] and 100% under setting [2]. In the same order, the values of `N[C@@H]1CON=C1O` [Cycloserine] are 85% and 110%.

`CC[C@H]1OC(=O)[C@H](C)[C@@H](O[C@H]2C[C@@](C)(OC)[C@@H](O)[C@H](C)O2)[C@H](C)[C@@H](O[C@@H]2O[C@H](C)C[C@H](N(C)C)[C@H]2O)[C@](C)(O)C[C@@H](C)CN(C)[C@H](C)[C@@H](O)[C@]1(C)O` [Azithromycin]: the “% Enhancement in bioavailability” value under setting [1] is 82% and the “% Enhancement in bioavailability” value under setting [2] came out at 115%. In the same order, the values of `CN(Cc1cnc2nc(N)nc(N)c2n1)c1ccc(C(=O)N[C@@H](CCC(=O)O)C(=O)O)cc1` [Methotrexate] are 95% and 140%. As to `CO[C@H]1/C=C/O[C@@]2(C)Oc3c(C)c(O)c4c(O)c(c(/C=N/N5CCN(C)CC5)c(O)c4c3C2=O)NC(=O)/C(C)=C\C=C\[C@H](C)[C@H](O)[C@@H](C)[C@@H](O)[C@@H](C)[C@H](OC(C)=O)[C@@H]1C` [Rifampicin], the “% Enhancement in bioavailability” value is 90% under setting [1] and 170% under setting [2]. On the same counts, the results for `Cc1cn([C@H]2C[C@H](N=[N+]=[N-])[C@@H](CO)O2)c(=O)[nH]c1=O` [Zidovudine] are 120% and 135%.
